According to patent US7332473B2, “Peptides and medicinal compositions containing the same” (priority 2002, dated 2008):
Like-named read-outs stand apart in the source and are kept apart here. Ends that are not written are not given here.

Columns and labels:
physchem [1] = type: physicochemical; conditions: buffer or solvent
Procedure: Adequate amounts of peptides 4, 12, 21, and 23 were fractionated via weighing and then dissolved in distilled water (Otsuka Distilled Water) adjusted at pH levels of 6.0 and 7.0 to bring the final concentration to 10 μg/ml. The resulting solutions were allowed to stand in an incubator at 55° C. (FC-610, Advantec) for 3 days, and reverse phase HPLC analysis was carried out (wavelength: 220 nm; mobile phase: acetonitrile (29.5%)/trifluoroacetic acid (0.1%); column: ODS-120T (Tosoh); column temperature: 25° C.) to examine the quantities of remaining peptides 4, 12, 21, and 23. […] This was particularly apparent at pH 7.0.

physchem [2] = type: physicochemical; conditions: pH 7; for remaining at 240 h, 100 μg/ml / remaining at 480 h, 100 μg/ml / remaining at 720 h, 100 μg/ml: buffer or solvent
Procedure: Adequate amounts of peptides 4, 12, 21, and 23 were fractionated via weighing and then dissolved in distilled water (Otsuka Distilled Water) adjusted at the pH level of 7.0 to bring the final concentration to 100 μg/ml. The resulting solutions were allowed to stand in an incubator at 55° C. (FC-610, Advantec) for 0, 10, 20, and 30 days, respectively, and reverse phase HPLC analysis was carried out (wavelength: 220 nm; mobile phase: acetonitrile (29.5%)/trifluoroacetic acid (0.1%); column: ODS-120T (Tosoh); column temperature: 25° C.) to examine the amount of remaining peptides 4, 12, 21, and 23.

physchem [3] = type: physicochemical; conditions: for remaining at 168 h, 100 μg/ml: buffer
Procedure: (§1) Adequate amounts of peptides 4, 12, 21, and 23 were fractionated via weighing and then dissolved in phosphate buffers (aqueous solution of 0.001% sodium dihydrogen phosphate) adjusted to pH levels of 6.0 and 7.0 to bring the final concentration to 100 μg/ml. The resulting solutions were allowed to stand in a thermo-hygrostat (LH-20-11, Nagano Kagaku) at 40° C. and 75% RH for a week, and reverse phase HPLC analysis was carried out (wavelength: 220 nm; mobile phase: acetonitrile (29.5%)/trifluoroacetic acid (0.1%); column: ODS-120T (Tosoh); column temperature: 25° C.) to examine the quantities of remaining peptides 4, 12, 21, and 23.

physchem [4] = type: physicochemical; conditions: pH 7; for remaining at 240 h, 100 μg/ml / remaining at 480 h, 100 μg/ml / remaining at 720 h, 100 μg/ml: buffer
Procedure: as §1, with “phosphate buffer (an aqueous” for “phosphate buffers (aqueous”, “adjusted at the” for “adjusted to”, “pH level” for “pH levels”, “of” for “of 6.0 and”, “for 0, 10, 20, and 30 days,” for “for a week,”

bronchial smooth muscle = test: Relaxant effect on bronchial smooth muscle (carbachol-constricted trachea, Magnus tank); set-up: species or system Hartley male guinea pigs; conditions: carbachol (3×10^−7 M)-induced constriction; peptide 12 cumulative 10^−9 M to 3×10^−6 M, peptides 21 and 23 single 3×10^−6 M; isoproterenol 10^−6 M = 100% relaxation
PC-12 cells = test: Effect of inducing neurite formation; type: cell-based, rat; conditions: peptides 100 nM, cultured 3 days, compared to control without peptide and peptide 1
Procedure: Effect of peptides 1, 4, 12, 21, and 23 for inducing neurite formation were tested in the manner described below. PC-12 cells were cultured in Dulbecco's modified minimum essential medium (DMEM) containing 5% horse serum and 5% fetal calf serum in the presence of 5% CO2 and 95% air at 37° C. Cells were separated from the culture flask with the aid of trypsin, counted using a cytometer, and then the concentration was adjusted to 1.0×10^4 cells/ml. The cell-containing liquid medium was added to a Biocoat type IV collagen-coated 24-well dish in amounts of 1 ml each and then cultured in the presence of 5% CO2 and 95% air at 37° C. for 24 hours. The medium was replaced 24 hours later, and peptides (100 nM) were added at that time. The resultant was continuously cultured for 3 days and then photographed. […] The scale bar in each photograph represents 100 μm.

PC12 cells = type: cell-based, rat
gastric constriction = test: Inhibitory effect on gastric peristaltic movement (carbachol-constricted isolated stomach, Magnus tank); set-up: species or system ICR mice; conditions: test peptides 10^−6 M, carbachol 3×10^−6 M, 15 minutes after drug administration, level of peptide 9 (control drug) = 100
[5] = Helical content from circular dichroism spectra; type: physicochemical; conditions: 20 mM Tris-HCl buffer (pH 7.4), calculation by Greenfield et al.
Procedure: VIP (peptide 1, SEQ ID NO: 2), peptide 7 (SEQ ID NO: 8) corresponding to 25 residues at the N-terminus of VIP, and peptide 8 (SEQ ID NO: 9), which is a peptide 7 derivative with its methionine-17 being oxidized, were dissolved in a 20 mM Tris-HCl buffer (pH 7.4), and the circular dichroism spectra thereof were examined using the Jasco J-720 (Jasco Corporation). According to analytical calculation of higher-order structure by Greenfield et al., the helical content of peptide 1 was about 50% (FIG. 2).

[6] = Stability of peptide 4 in distilled water, 40° C., 24 hours (reverse phase HPLC); type: physicochemical
Procedure: Peptide 4, a modified peptide, having a higher Arg content than wild-type VIP was weighed and fractionated to about 1 mg, the fractions were dissolved in distilled water adjusted to pH levels of 4.0, 5.0, 6.0, and 7.0 (Otsuka Distilled Water), and the final concentration was adjusted to 10 μg/ml. The resulting solutions were allowed to stand in an incubator at 40° C. (LH20-11M, Nagano Kagaku) for 24 hours, analysis was carried out via reverse phase HPLC (wavelength: 220 nm; mobile phase: 28% acetonitrile/0.1% trifluoroacetic acid; column: ODS-120T (Tosoh); column temperature: 25° C.), and the amount of remaining peptide 4 was examined.

Row | Substance | remaining at 72 h, 10 μg/ml (physchem [1]; pH 6) [%] | remaining at 72 h, 10 μg/ml (physchem [1]; pH 7) [%] | remaining at 240 h, 100 μg/ml (physchem [2]) [%] | remaining at 480 h, 100 μg/ml (physchem [2]) [%] | remaining at 720 h, 100 μg/ml (physchem [2]) [%] | stability (in words) (physchem [2]) | remaining at 168 h, 100 μg/ml (physchem [3]; pH 6) [%] | remaining at 168 h, 100 μg/ml (physchem [3]; pH 7) [%] | stability (in words) (physchem [3]; pH 6) | remaining at 240 h, 100 μg/ml (physchem [4]) [%] | remaining at 480 h, 100 μg/ml (physchem [4]) [%] | remaining at 720 h, 100 μg/ml (physchem [4]) [%] | effect of relaxing the trachea (in words) (bronchial smooth muscle) | neurite formation (in words) (PC-12 cells) | neuroprotective effect, viable cell counts (in words) (PC12 cells) | Level of constriction inhibition (gastric constriction) | further results
1 | H-HSDAVFTDNYTRLRRQLAVRRYLAAILGRR-NH2 [Peptide 12] | 94 | 100 | 49 | 34 | 18 | still remained 30 days later | 100 | 90 | significantly improved compared to that of peptide 4 | 84 | 86 | 73 | apparent peptide-addition-dependent effect of relaxing the trachea | significantly induced neurite formation | significantly higher than that of peptide 1 |  | 
2 | His-Ser-Asp-Gly-Ile-Phe-Thr-Asp-Ser-Tyr-Ser-Arg-Tyr-Arg-Arg-Gln-Leu-Ala-Val-Arg-Arg-Tyr-Leu-NH2 (HSDGIFTDSYSRYRRQLAVRRYL-NH2) [Peptide 33] |  |  |  |  |  |  |  |  |  |  |  |  |  |  |  | 160 | 
3 | His-Ser-Asp-Ala-Val-Phe-Thr-Asp-Asn-Tyr-Thr-Arg-Leu-Arg-Lys-Gln-Leu-Ala-Val-Lys-Lys-Tyr-Leu-NH2 (HSDAVFTDNYTRLRKQLAVKKYL-NH2) [Peptide 9, reference compound] |  |  |  |  |  |  |  |  |  |  |  |  |  |  |  | 100 | 
4 | His-Ser-Asp-Ala-Val-Phe-Thr-Asp-Asn-Tyr-Thr-Arg-Leu-Arg-Lys-Gln-Met-Ala-Val-Lys-Lys-Tyr-Leu-Asn-Ser-NH2 (HSDAVFTDNYTRLRKQMAVKKYLNS-NH2) [Peptide 7, corresponding to 25 residues at the N-terminus of VIP] |  |  |  |  |  |  |  |  |  |  |  |  |  |  |  |  | helical content [5]: would retain a good deal of such higher-order structure
5 | H-HSDAVFTENYTRLRRQLAVRRYLAAILGRR-NH2 [Peptide 21] | 93 | 100 | 29 | 45 | 10 | still remained 30 days later | 100 | 87 | significantly improved compared to that of peptide 4 | 100 | 76 | 59 | apparent peptide-addition-dependent effect of relaxing the trachea | significantly induced neurite formation | significantly higher than that of peptide 1 |  | 
6 | His-Ser-Asp-Ala-Val-Phe-Thr-Asp-Asn-Tyr-Thr-Arg-Leu-Arg-Arg-Gln-Leu-Ala-Val-Arg-Arg-Tyr-Leu-NH2 (HSDAVFTDNYTRLRRQLAVRRYL-NH2) [Peptide 10] |  |  |  |  |  |  |  |  |  |  |  |  |  |  |  | 227 | 
7 | H-HSDAVFTANYTRLRRQLAVRRYLAAILGRR-NH2 [Peptide 23] | 100 |  | 62 | 42 | 30 | still remained 30 days later | 100 |  | significantly improved compared to that of peptide 4 | 98 | 89 | 73 | apparent peptide-addition-dependent effect of relaxing the trachea | significantly induced neurite formation | significantly higher than that of peptide 1 |  | 
8 | His-Ser-Asp-Ala-Val-Phe-Thr-Asp-Asn-Tyr-Thr-Arg-Leu-Arg-Lys-Gln-Met-Ala-Val-Lys-Lys-Tyr-Leu-Asn-Ser-Ile-Leu-Asn-NH2 [Peptide 1, reference compound] |  |  |  |  |  |  |  |  |  |  |  |  |  |  | significant neuroprotective effects |  | helical content [5]: about 50%
9 | H-HSDAVFTDNYTRLRRQLAVRRYLNSILNGRR-NH2 [Peptide 4, reference compound] |  | 67 | 0 | 0 | 0 | completely disappeared after storage for 10 days | 53 | 35 |  | 28 | 13 |  |  | significantly induced neurite formation | significantly higher than that of peptide 1 |  | remaining at 24 h ([6]; buffer or solvent, pH 5.0, distilled water, 10 μg/ml, 40° C., read-out: Amount of remaining peptide): 90%; peptide degradation (in words) ([6]; distilled water pH 4.0 to 7.0, 40° C.): peptide degradation was significant at around the neutral pH region; remaining at 24 h, 10 μg/ml ([6]; pH 4.0, distilled water, 10 μg/ml, 40° C., read-out: Amount of remaining peptide): 91%; remaining at 24 h, 10 μg/ml ([6]; pH 6.0, distilled water, 10 μg/ml, 40° C., read-out: Amount of remaining peptide): 93%; remaining at 24 h, 10 μg/ml ([6]; pH 7.0, distilled water, 10 μg/ml, 40° C., read-out: Amount of remaining peptide): 84%; stability (in words) (physchem [4]): disappeared 30 days later
